Source: patent publication US4873238A, “2-Pyridinecarbothioamides and pharmaceutical compositions comprising the same” (American Home Products Corporation, priority 1988, dated 1989)
Structures can show the parent of a compound that is named as a salt.

Assays:
[1] = tested on: gastric mucosal lesions produced by ethanol; assay: Ethanol induced cytotoxicity in rats (prevention of gastric mucosal lesions); assay type: in vivo, Male Sprague-Dawley rats; details: for ED50: Rattus norvegicus, po; for % Inhibition of lesion formation: 10 mg/kg oral, 1 hour prior to ethanol, rat
Description: The purpose of this assay is to evaluate the effectiveness of the compounds of the present invention in preventing the formation of gastric mucosal lesions produced by ethanol. The assay is based on A. Robert et al., Gastroenterology 77, 433-443 (1979). Male Sprague-Dawley rats weighing between 120-150 grams were fasted for 24 hours prior to the experiment (water ad libitum). At least two hours before dosing, the animals were placed in individual cages with wire grid bottoms and denied access to water. Ethanol was administered orally at 1 mL per animal. The compounds of the present invention were dissolved in water or suspended in water with 0.5% carboxymethylcellulose and administered orally at a dose based on an appropriate standard giving ED50 to ED75 response of cytoprotective activity. The rats were randomly divided into groups of equal number, ordinarily 10 to a group. The rats were weighed and the individual weights were recorded. Exactly 1 hour prior to the administration of ethanol, the screening group was treated with the compounds of the present invention and the control group with the vehicle. One hour after administering the ethanol, the animals were euthanized. The stomachs were removed, cut along the greater curvature, and cleansed of all debris with tap water. The stomachs were set aside and kept moist with saline until the lesions were scored. Macroscopic lesions on the gastric mucosa were numerically graded. The final grade assigned a stomach was the sum of all the grades. Streaks longer than 6 mm are graded in multiples of 2 mm. The degree of cytotoxicity occuring in each group is represented as the mean ±SE ulcer grade. The mean of each treatment group was compared to the control group and expressed as the % inhibition of lesion formation.

[2] = tested on: stress-induced ulcers; assay: Stress-induced gastric ulcers in rats; assay type: in vivo, Male rats; details: oral or parenteral, usually 15 to 45 minutes prior to stress; restraint at 4-5 °C for 3 hours; sodium taurocholate 20 mg p.o.; rat; read-out: Stress-Induced Ulcer ED50
Description: The purpose of this assay is to evaluate the effectiveness of the compounds of the present invention in preventing stress-induced ulcers. Male rats (280-380 g) were fasted for 18 hours (water available ad libitum) prior to use in experiments. Eight to twelve rats were used per group. Drug solutions or suspensions were prepared in physiological saline solution. Suspensions were prepared with the aid of 0.5% carboxymethylcellulose in physiological saline solution. Drugs were administered orally or parenterally at predetermined intervals (usually 15 to 45 minutes) prior to stress. This test procedure is according to the method of Senay et al., Proc. Soc. Exp. Biol. Med. 124, 1221 (1967), modified to produce a more consistent ulcer incidence. After drug administration, the rats were immobilized in metallic restrainers and placed in a cold room at 4°-5° C. for 3 hours before they were euthanized. Each rat was given 20 mg of sodium taurocholate p.o. immediately before placing it in the restrainer. After euthanizing the rats, the stomachs were excised and examined. Macroscopic ulcers were subjectively assigned a grade from 1 to 3 on the basis of increasing size. The number of ulcers in each size category was determined and multiplied by the respective grade; the addition of the resultant values gave the cumulative ulcer score. The average cumulative ulcer score of each […] group was compared to that of the control group and the percent inhibition of ulcer formation was calculated. When the responses obtained were directly proportional to the doses employed, ED50 values were determined from the dose-response curves obtained.

[3] = tested on: ethanol-induced ulcer; details: antisecretory agents; cited from earlier work

For Fc1ccc(NC(=S)c2ccccn2)cc1Cn1ccnc1 [Example 1, N-[4-fluoro-3-[(1H-imidazol-1-yl)methyl]phenyl]-2-pyridinecarbothioamide], the ED50 [1] was 0.88 mg/kg.

Work on Fc1ccc(NC(=S)c2ccccn2)cc1CN1CCCCC1 [Example 2, N-[4-Fluoro-3-(piperidinylmethyl)phenyl]-2-pyridinecarbothioamide Hydrochloride] yielded an ED50 [1] of 2.6 mg/kg.

N#Cc1ccc(NC(=S)c2ccccn2)cc1 [Example 3, N-(4-Cyanophenyl)-2-pyridinecarbothioamide] gave an ED50 [2] of 1.7 mg/kg and an ED50 [1] of 1.1 mg/kg.

Compound N#Cc1cccc(NC(=S)c2ccccn2)c1 [Example 4, N-(3-cyanophenyl)-2-pyridinecarbothioamide] has an ED50 [1] of 1.6 mg/kg.

Work on Cl.Cl.O.S=C(Nc1cccc(Cn2ccnc2)c1)c1ccccn1 [Example 5, N-[3-[(1H-Imidazol-1-yl)methyl]phenyl]-2-pyridinecarbothioamide Dihydrochloride Hydrate] yielded an ED50 [2] of 1.9 mg/kg and an ED50 [1] of 2.2 mg/kg.

For S=C(Nc1cccc(CN2CCCCC2)c1)c1ccccn1 [Example 6, N-[3-(piperidinylmethyl)phenyl]-2-pyridinecarbothioamide], the ED50 [2] was 4.6 mg/kg and the ED50 [1] was 5.3 mg/kg.

In the case of S=C(Nc1ccc(CN2CCCCC2)cc1)c1ccccn1 [Example 7, N-[4-(piperidinylmethyl)phenyl]-2-pyridinecarbothioamide], the ED50 [1] is reported as 6.2 mg/kg.

In the case of S=C(Nc1cccc(CN2CCOCC2)c1)c1ccccn1 [Example 8, N-[3-[(4-Morpholinyl)methyl]phenyl]-2-pyridinecarbothioamide], the “% Inhibition of lesion formation” value [1] is reported as 64%.

With S=C(Nc1cccc(CN2CCSCC2)c1)c1ccccn1 [Example 9, N-[3-[(4-thiomorpholinyl)methyl]phenyl]-2-pyridinecarbothioamide] the “% Inhibition of lesion formation” value [1] was 32%.

For CN1CCN(Cc2cccc(NC(=S)c3ccccn3)c2)CC1 [Example 10, N-[3-[(4-methyl-1-piperazinyl)methyl]phenyl]-2-pyridinecarbothioamide dihydrochloride hemihydrate], the “% Inhibition of lesion formation” value [1] was 10%.

For CN/C(=N/CCSCc1nc[nH]c1C)NC#N [cimetidine], the “Protection in the ethanol-induced ulcer model” value [3] is given as “do not protect”.

For CC(C)[N+](C)(CCOC(=O)C1c2ccccc2Oc2ccccc21)C(C)C [propantheline bromide], the “Protection in the ethanol-induced ulcer model” value [3] is given as “do not protect”.
